The source of these data is article PMC10666452, “Direct inhibition of dioxygenases TET1 by the rheumatoid arthritis drug auranofin selectively induces cancer cell death in T-ALL” (Journal of Hematology & Oncology, 2023).

The assay deals with T1, TET1 (TET1-CD) (Homo sapiens, UniProt Q8NFU7).
T1 construct: TET1 protein
T1 sequence (Q8NFU7 1418-2136 limits assumed): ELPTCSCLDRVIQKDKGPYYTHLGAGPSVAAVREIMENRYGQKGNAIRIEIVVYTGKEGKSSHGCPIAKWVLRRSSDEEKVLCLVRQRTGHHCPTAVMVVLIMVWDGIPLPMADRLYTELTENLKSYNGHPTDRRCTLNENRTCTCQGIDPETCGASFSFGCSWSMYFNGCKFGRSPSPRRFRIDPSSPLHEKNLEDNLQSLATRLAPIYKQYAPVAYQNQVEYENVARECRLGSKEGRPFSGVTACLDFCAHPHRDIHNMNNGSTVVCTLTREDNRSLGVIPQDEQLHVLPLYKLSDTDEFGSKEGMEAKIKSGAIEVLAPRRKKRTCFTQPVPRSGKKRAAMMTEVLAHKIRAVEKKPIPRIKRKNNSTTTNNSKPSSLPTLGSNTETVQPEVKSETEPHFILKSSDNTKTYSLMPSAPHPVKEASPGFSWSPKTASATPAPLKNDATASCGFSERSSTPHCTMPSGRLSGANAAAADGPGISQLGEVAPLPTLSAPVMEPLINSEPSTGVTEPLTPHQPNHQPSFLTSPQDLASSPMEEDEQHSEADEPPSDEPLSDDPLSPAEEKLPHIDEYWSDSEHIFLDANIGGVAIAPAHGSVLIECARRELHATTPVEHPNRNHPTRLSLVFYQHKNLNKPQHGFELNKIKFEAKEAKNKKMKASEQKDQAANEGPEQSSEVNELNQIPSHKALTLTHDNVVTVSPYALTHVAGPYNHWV
Kind of assay: SPR competition against auranofin. Format: binding. The settings on record: competes with auranofin, 2-OG analogue.

`O=C(O)CNC(=O)C(=O)O` [NOG]: the “SPR competition against auranofin” value is “both NOG and Fe (II) compete with auranofin for binding to TET1-CD”.
